Tests used:
Assay in all cases: relative viability (nuclei count vs DMSO), 5 days (fraction); higher = more cells survive
XMD13-2 + Palbociclib = compound: C1CC1C(=O)NC2=NNC3=C2C=CC(=C3)C4=CC(=CC=C4)C(=O)NC5CC5 [XMD13-2] + CC(=O)c1c(C)c2cnc(Nc3ccc(N4CCNCC4)cn3)nc2n(C2CCCC2)c1=O [Palbociclib] (partner 0.5 µM)
Procedure, shortened: (§1)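 Lung cancer cell lines were pin-tool dosed in 1536-well plates on the day after seeding, with either a lone drug or a fixed anchor-drug dose plus five library-drug doses (not always all listed) in √10 steps. Nuclei were counted on 4× images after 5 days. Relative viability is the ratio of treated-well to vehicle-well nuclei counts, with each value a median of duplicate plates.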

[1] = compound: Cc1ccc(C(=O)Nc2cccc(C(F)(F)F)c2)cc1Nc1cncc(C(N)=O)c1 [ALW-II-49-7] + CC(=O)c1c(C)c2cnc(Nc3ccc(N4CCNCC4)cn3)nc2n(C2CCCC2)c1=O [Palbociclib] (partner 0.5 µM)
Procedure, shortened: as §1

XMD13-2 + OSI-027 = compound: C1CC1C(=O)NC2=NNC3=C2C=CC(=C3)C4=CC(=CC=C4)C(=O)NC5CC5 [XMD13-2] + COc1cccc2cc(-c3nc([C@H]4CC[C@H](C(=O)O)CC4)n4ncnc(N)c34)[nH]c12 [OSI-027] (partner 0.5 µM)
Procedure, shortened: as §1

ALW-II-49-7 + Dasatinib = compound: Cc1ccc(C(=O)Nc2cccc(C(F)(F)F)c2)cc1Nc1cncc(C(N)=O)c1 [ALW-II-49-7] + Cc1nc(Nc2ncc(C(=O)Nc3c(C)cccc3Cl)s2)cc(N2CCN(CCO)CC2)n1 [Dasatinib] (partner 0.075 µM)
Procedure, shortened: as §1

UMC-11 showed a relative viability (XMD13-2 + Palbociclib; first compound 0.05 µM) of 0.356, a relative viability (XMD13-2 + Palbociclib; first compound 0.1581 µM) of 0.313 and a relative viability (XMD13-2 + Palbociclib; first compound 0.5 µM) of 0.349. It also gave a relative viability (XMD13-2 + Palbociclib; first compound 1.581 µM) of 0.33, a relative viability (XMD13-2 + Palbociclib; first compound 5 µM) of 0.334 and a relative viability ([1]; first compound 0.08 µM) of 0.345. It also gave a relative viability ([1]; first compound 0.253 µM) of 0.348, a relative viability ([1]; first compound 0.8 µM) of 0.33 and a relative viability ([1]; first compound 2.53 µM) of 0.295. For the same cell line, the relative viability ([1]; first compound 8 µM) was 0.274, the relative viability (XMD13-2 + OSI-027; first compound 0.05 µM) was 0.438 and the relative viability (XMD13-2 + OSI-027; first compound 0.1581 µM) was 0.404. The relative viability (XMD13-2 + OSI-027; first compound 0.5 µM) was 0.474, the relative viability (XMD13-2 + OSI-027; first compound 1.581 µM) was 0.453 and the relative viability (XMD13-2 + OSI-027; first compound 5 µM) was 0.351. For the same cell line, the relative viability (ALW-II-49-7 + Dasatinib; first compound 0.08 µM) was 0.428, the relative viability (ALW-II-49-7 + Dasatinib; first compound 0.253 µM) was 0.453 and the relative viability (ALW-II-49-7 + Dasatinib; first compound 0.8 µM) was 0.473. The relative viability (ALW-II-49-7 + Dasatinib; first compound 2.53 µM) was 0.456 and the relative viability (ALW-II-49-7 + Dasatinib; first compound 8 µM) was 0.519.
